Test results reported in ChEMBL document CHEMBL3792317, “Novel tetrazoloquinoline-rhodanine conjugates: Highly efficient synthesis and biological evaluation” (Bioorg Med Chem Lett, 2016).
In brackets after ≈: the same amount, converted by molar mass.

Experiments:
Aspergillus flavus = test: Antifungal activity against Aspergillus flavus NCIM 539 after 48 hrs by agar cup plate method; assay type: functional; settings: NCIM 539, 48 h
[1] = tested on: Mycobacterium bovis BCG str. ATCC 35743; test: Antitubercular activity against dormant Mycobacterium bovis BCG ATCC 35743 at 3 ug/ml incubated for 40 mins by XTT Reduction Menadione Assay; assay type: functional
A549 = test: (§1) Cytotoxicity against human A549 cells after 48 hrs by MTT assay; assay type: cell-based; settings: a549, 48 h
[2] = as §1; assay type: cell-based; settings: A549 cells
[3] = tested on: Mycobacterium tuberculosis; test: Antitubercular activity against Mycobacterium tuberculosis H37Ra ATCC 25177 at 10 ug/ml incubated for 40 mins by XTT Reduction Menadione Assay; assay type: functional; settings: H37Ra ATCC 25177, 40 min, read-out: GI
[4] = tested on: Mycobacterium bovis BCG str. ATCC 35743; test: Antitubercular activity against dormant Mycobacterium bovis BCG ATCC 35743 at 30 ug/ml incubated for 40 mins by XTT Reduction Menadione Assay; assay type: functional
[5] = tested on: Mycobacterium tuberculosis; test: Antitubercular activity against Mycobacterium tuberculosis H37Ra ATCC 25177 incubated for 40 mins by XTT Reduction Menadione Assay; assay type: functional; settings: H37Ra ATCC 25177, 40 min
Candida albicans = test: Antifungal activity against Candida albicans NCIM 3471 after 48 hrs by agar cup plate method; assay type: functional; settings: NCIM 3471, 48 h
Aspergillus niger = test: Antifungal activity against Aspergillus niger NCIM 1196 after 48 hrs by agar cup plate method; assay type: functional; settings: NCIM 1196, 48 h
[6] = Cytotoxicity against human PANC1 cells after 48 hrs by MTT assay; assay type: cell-based, PANC-1; settings: for GI50 at 48 h: PANC1 cells; for GI90: panc-1, 48 h
[7] = Antitubercular activity against Mycobacterium bovis BCG ATCC 35743 incubated for 40 mins by XTT Reduction Menadione Assay; assay type: functional, Mycobacterium bovis BCG str. ATCC 35743; settings: Mycobacterium tuberculosis variant bovis BCG, ATCC 35743, 40 min
[8] = tested on: Mycobacterium tuberculosis; test: Antitubercular activity against Mycobacterium tuberculosis H37Ra ATCC 25177 at 30 ug/ml incubated for 40 mins by XTT Reduction Menadione Assay; assay type: functional; settings: H37Ra ATCC 25177, 40 min, read-out: GI
Cryptococcus neoformans = test: Antifungal activity against Cryptococcus neoformans NCIM 576 after 48 hrs by agar cup plate method; assay type: functional; settings: NCIM 576, 48 h
[9] = tested on: Mycobacterium tuberculosis; test: Antitubercular activity against active Mycobacterium tuberculosis H37Ra ATCC 25177 incubated for 40 mins by XTT Reduction Menadione Assay; assay type: functional; settings: H37Ra ATCC 25177, 40 min
[10] = Cytotoxicity against human THP1 cells after 48 hrs by MTT assay; assay type: cell-based, THP-1; settings: for GI50 at 48 h: THP1 cells; for GI90: thp-1, 48 h
[11] = tested on: Mycobacterium tuberculosis; test: Antitubercular activity against dormant Mycobacterium tuberculosis H37Ra ATCC 25177 incubated for 40 mins by XTT Reduction Menadione Assay; assay type: functional; settings: H37Ra ATCC 25177, 40 min
Fusarium oxysporum = test: Antifungal activity against Fusarium oxysporum NCIM 1332 after 48 hrs by agar cup plate method; assay type: functional; settings: NCIM 1332, 48 h
[12] = tested on: Mycobacterium tuberculosis; test: Antitubercular activity against Mycobacterium tuberculosis H37Ra ATCC 25177 at 3 ug/ml incubated for 40 mins by XTT Reduction Menadione Assay; assay type: functional; settings: H37Ra ATCC 25177, 40 min, read-out: GI
HeLa = test: (§2) Cytotoxicity against human HeLa cells after 48 hrs by MTT assay; assay type: cell-based; settings: hela, 48 h
[13] = as §2; assay type: cell-based; settings: HeLa cells
[14] = tested on: Mycobacterium bovis BCG str. ATCC 35743; test: Antitubercular activity against dormant Mycobacterium bovis BCG ATCC 35743 at 10 ug/ml incubated for 40 mins by XTT Reduction Menadione Assay; assay type: functional
[15] = tested on: Mycobacterium bovis BCG str. ATCC 35743; test: Antitubercular activity against dormant Mycobacterium bovis BCG ATCC 35743 incubated for 40 mins by XTT Reduction Menadione Assay; assay type: functional
Bacillus subtilis = test: Antibacterial activity against Bacillus subtilis after 18 hrs by broth dilution method; assay type: functional
Pseudomonas fluorescens = test: Antibacterial activity against Pseudomonas fluorescens after 18 hrs by broth dilution method; assay type: functional
Escherichia coli = test: Antibacterial activity against Escherichia coli after 18 hrs by broth dilution method; assay type: functional
Staphylococcus aureus = test: Antibacterial activity against Staphylococcus aureus after 18 hrs by broth dilution method; assay type: functional

SMILES	MIC (Aspergillus flavus) [µg/mL]	growth inhibition (GI) [1] [%]	GI90 (A549) [µg/mL]	GI50 at 48 h [2] [µg/mL]	inhibition of growth at 10 µg/mL [3] [%]	growth inhibition (GI) [4] [%]	MIC [5] [µg/mL]	MIC (Candida albicans) [µg/mL]	MIC (Aspergillus niger) [µg/mL]	GI50 at 48 h [6] [µg/mL]	GI90 [6] [µg/mL]	MIC [7] [µg/mL]	inhibition of growth at 30 µg/mL [8] [%]	MIC (Cryptococcus neoformans) [µg/mL]	GI50 at 48 h [10] [µg/mL]	GI90 [10] [µg/mL]	MIC (Fusarium oxysporum) [µg/mL]	inhibition of growth at 3 µg/mL [12] [%]	GI90 (HeLa) [µg/mL]	growth inhibition (GI) [14] [%]	other results
Cc1ccc2c(c1)cc(/C=C1\SC(=S)N(CC(=O)O)C1=O)c1nnnn12	50 (≈ 130 µM)	20.2	> 100	> 100	16.3	-14.8	88.1 (≈ 229 µM)	25 (≈ 64.9 µM)	150 (≈ 389 µM)	> 100	> 100	84.4 (≈ 219 µM)	36.7	100 (≈ 259 µM)	> 100	> 100	100 (≈ 259 µM)	17.5	> 100	35.3	IC90 [9]: 49.2 µg/mL (≈ 128 µM); IC90 [11]: 88.1 µg/mL (≈ 229 µM); GI50 at 48 h [13]: > 100 µg/mL
Cc1ccc2cc(/C=C3\SC(=S)N(CC(=O)O)C3=O)c3nnnn3c2c1	50 (≈ 130 µM)	-4.5	> 100	> 100	49.2	50.6	159 (≈ 413 µM)	75 (≈ 195 µM)	150 (≈ 389 µM)	> 100	> 100	24.2 (≈ 62.7 µM)	65	150 (≈ 389 µM)	> 100	> 100	100 (≈ 259 µM)	31.7	> 100	19.2	IC90 [9]: > 250 µg/mL; IC90 [11]: 159 µg/mL (≈ 413 µM); IC90 [15]: 24.2 µg/mL (≈ 62.7 µM); GI50 at 48 h [13]: > 100 µg/mL
CC(=O)O[C@H]1C(=O)[C@@]2(C)[C@H]([C@H](OC(=O)c3ccccc3)[C@]3(O)C[C@H](OC(=O)[C@H](O)[C@@H](NC(=O)c4ccccc4)c4ccccc4)C(C)=C1C3(C)C)[C@]1(OC(C)=O)CO[C@@H]1C[C@@H]2O [PACLITAXEL]	–	–	0.038 (≈ 0.0445 µM)	< 0.004	–	–	–	–	–	0.128 (≈ 0.15 µM)	5.715 (≈ 6.69 µM)	–	–	–	0.137 (≈ 0.161 µM)	5.814 (≈ 6.81 µM)	–	–	0.075 (≈ 0.0878 µM)	–	GI50 at 48 h [13]: 0.0048 µg/mL (≈ 0.00562 µM)
Cc1cccc2cc(/C=C3\SC(=S)NC3=O)c3nnnn3c12	50 (≈ 153 µM)	64	> 100	> 100	16.7	82.4	148 (≈ 453 µM)	25 (≈ 76.4 µM)	25 (≈ 76.4 µM)	> 100	> 100	> 250	40.3	75 (≈ 229 µM)	> 100	> 100	100 (≈ 305 µM)	-9.62	> 100	63.3	MIC (Bacillus subtilis): 88.8 µg/mL (≈ 271 µM); MIC (Pseudomonas fluorescens): 148 µg/mL (≈ 451 µM); MIC (Escherichia coli): 173 µg/mL (≈ 529 µM); IC90 [9]: > 250 µg/mL; IC90 [11]: 148 µg/mL (≈ 453 µM); MIC (Staphylococcus aureus): 127 µg/mL (≈ 388 µM); GI50 at 48 h [13]: > 100 µg/mL
Cc1ccc2c(c1)cc(/C=C1\SC(=S)NC1=O)c1nnnn12	100 (≈ 305 µM)	8.79	63.3 (≈ 193 µM)	89.2 (≈ 273 µM)	23.7	-32.7	> 250	150 (≈ 458 µM)	25 (≈ 76.4 µM)	42 (≈ 128 µM)	> 100	> 250	10.8	25 (≈ 76.4 µM)	63.3 (≈ 193 µM)	63.3 (≈ 193 µM)	25 (≈ 76.4 µM)	21.9	> 100	-28	MIC (Bacillus subtilis): 174 µg/mL (≈ 532 µM); MIC (Pseudomonas fluorescens): 223 µg/mL (≈ 682 µM); MIC (Escherichia coli): 167 µg/mL (≈ 511 µM); IC90 [9]: > 250 µg/mL; IC90 [11]: > 250 µg/mL; MIC (Staphylococcus aureus): 159 µg/mL (≈ 486 µM); GI50 at 48 h [13]: > 100 µg/mL
O=C1NC(=S)S/C1=C\c1cc2ccccc2n2nnnc12	125 (≈ 399 µM)	-8.27	> 100	79.2 (≈ 253 µM)	71	-15.7	162 (≈ 515 µM)	150 (≈ 479 µM)	100 (≈ 319 µM)	> 100	> 100	168 (≈ 536 µM)	51.8	75 (≈ 239 µM)	> 100	> 100	150 (≈ 479 µM)	34	> 100	-5.07	MIC (Bacillus subtilis): 204 µg/mL (≈ 652 µM); MIC (Pseudomonas fluorescens): 186 µg/mL (≈ 593 µM); MIC (Escherichia coli): 212 µg/mL (≈ 677 µM); IC90 [9]: > 250 µg/mL; IC90 [11]: 162 µg/mL (≈ 515 µM); MIC (Staphylococcus aureus): 153 µg/mL (≈ 487 µM); GI50 at 48 h [13]: > 100 µg/mL
O=C(O)CN1C(=O)/C(=C/c2cc3ccccc3n3nnnc23)SC1=S	125 (≈ 337 µM)	-52.6	–	–	-2.04	-12.2	> 250	50 (≈ 135 µM)	125 (≈ 337 µM)	–	–	> 250	1.49	150 (≈ 404 µM)	–	–	50 (≈ 135 µM)	12.2	–	-28.9	MIC (Bacillus subtilis): 124 µg/mL (≈ 333 µM); MIC (Pseudomonas fluorescens): 182 µg/mL (≈ 489 µM); MIC (Escherichia coli): 178 µg/mL (≈ 480 µM); MIC (Staphylococcus aureus): 151 µg/mL (≈ 408 µM)
Cc1cccc2cc(/C=C3\SC(=S)N(CC(=O)O)C3=O)c3nnnn3c12	50 (≈ 130 µM)	-41.4	–	–	36.8	-58.8	93.2 (≈ 242 µM)	25 (≈ 64.9 µM)	100 (≈ 259 µM)	–	–	86 (≈ 223 µM)	28.2	125 (≈ 324 µM)	–	–	50 (≈ 130 µM)	44.5	–	-46.2	MIC (Bacillus subtilis): 135 µg/mL (≈ 351 µM); MIC (Pseudomonas fluorescens): 162 µg/mL (≈ 420 µM); MIC (Escherichia coli): 149 µg/mL (≈ 387 µM); MIC (Staphylococcus aureus): 106 µg/mL (≈ 274 µM)
